Read-outs that look alike come from different tables or passages of the source.

Assay [1] has as its target cloned human P2Y1 receptors (Homo sapiens (Human), UniProt P47900). Briefly: Binding Assay B: Scintillation Proximity Assay (SPA) for P2Y1 binding. The protocol:
Binding Assay B—Scintillation Proximity Assay (SPA) for P2Y1 Binding
A SPA membrane binding assay was used to identify inhibitors of [^33P] […] Binding reactions were performed in 384-well OptiPlates (PerkinElmer Life Sciences, Cat #6007299) in a volume of 50 μL containing ˜15 fmol of P2Y1 receptor (1.7 μg of total protein), 0.3 nM [^33P] […] Reactions were allowed to proceed to completion at room temperature for 1 hour followed by centrifugation of the plate for 5 min. About 40 μL of the aqueous solution was aspirated. Plates were sealed and the [^33P]
For orientation: Scintillation proximity formats need no separation of bound from free tracer.

Assay [2] deals with human platelet rich plasma (PRP). Briefly: ADP induced platelet aggregation assay. In kind it is cell-based. The following applies: 5 min, read-out: PA IC50 (μM) @ 10 μM ADP. The protocol: ADP Induced Platelet Aggregation Assay
The ability of P2Y1 antagonists covered in the present invention to inhibit platelet aggregation induced by 10 μM ADP was tested using human platelet rich plasma (PRP) as described in Platelet Protocols: Research and Clinical Laboratory Procedures (White, M. M. et al., Academic Press (1999)). Human blood was collected in 30 μM (final concentration in blood) argatroban (GSK) as the anticoagulant at a ratio of 1 ml per 9 ml of blood. The PRP was isolated by centrifugation at 170 g for 12 minutes. The platelet poor plasma (PPP) was used as the blank for optical aggregometry. Compounds of the present invention in DMSO solution was preincubated with 250 μl PRP at 37° C. for 1 minute with stirring speed of 1000 rpm. Aggregation was initiated by addition of 2.5 μl of 1 mM ADP (Chrono-log, Havertown, Pa.) for a final ADP concentration of 10 uM. Platelet aggregation was monitored using Optical Aggregometer (Chrono-log, Havertown, Pa.) and the area under the curve (AUC) at 5 minute was measured. IC50 was calculated using vehicle control as 0% inhibition.
The platelet aggregation assay measures the in vitro antiplatelet activity of a compound in platelet rich plasma. The assay is sensitive to plasma protein binding, and is believed to be a better predictor of actual in vivo activity.

Sequence of cloned human P2Y1 receptors (P47900 whole entry): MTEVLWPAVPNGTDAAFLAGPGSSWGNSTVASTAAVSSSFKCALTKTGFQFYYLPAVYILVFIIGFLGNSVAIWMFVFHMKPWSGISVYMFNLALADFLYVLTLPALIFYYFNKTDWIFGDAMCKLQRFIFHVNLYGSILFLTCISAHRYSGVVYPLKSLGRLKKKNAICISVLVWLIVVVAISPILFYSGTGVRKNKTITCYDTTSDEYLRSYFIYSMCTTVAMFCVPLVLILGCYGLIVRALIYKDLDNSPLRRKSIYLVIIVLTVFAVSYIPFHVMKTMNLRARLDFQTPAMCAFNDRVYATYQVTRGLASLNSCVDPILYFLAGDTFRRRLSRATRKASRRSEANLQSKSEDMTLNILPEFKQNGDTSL

Usually Ki stands for a dissociation constant, usually derived from enzyme kinetics or from competition with a known ligand. Usually IC50 stands for the midpoint of a concentration-inhibition curve. Compound `CC(C)(C)CN1CCC2(CC1)CN(c1ccccc1Nc1cc(-c3ccc(C(F)(F)F)cc3)on1)c1c(O)ccc(Cl)c12` [Example 37, 4-Chloro-1′-neopentyl-1-(2-(5-(4-(trifluoromethyl)phenyl)isoxazol-3-ylamino)phenyl)spiro[indoline-3,4′-piperidin]-7-ol] returned an inhibition constant (Ki) in assay [1] of 60 nM. Besides, the IC50 in assay [2] worked out at 9.9 µM.
The matching figures for `CC(C)(C)CN1CCC2(CC1)CN(c1ccccc1Nc1nnc(-c3cccc(F)c3)s1)c1c(O)ccc(C(F)(F)F)c12` [Example 5, 1-(2-(5-(3-Fluorophenyl)-1,3,4-thiadiazol-2-ylamino)phenyl)-1′-neopentyl-4-(trifluoromethyl)spiro[indoline-3,4′-piperidin]-7-ol]: 12 nM and 1.6 µM.
Take `CC(C)(C)CN1CCC2(CC1)CN(c1ccccc1Nc1nc(C(C)(C)C)c(C#N)s1)c1c(O)ccc(Cl)c12` [Example 39, 4-tert-Butyl-2-(2-(4-chloro-7-hydroxy-1′-neopentylspiro[indoline-3,4′-piperidine]-1-yl)phenylamino)thiazole-5-carbonitrile]: the Ki in assay [1] amounted to 9 nM. In addition, the IC50 in assay [2] turned out to be 4.9 µM.
`CC(C)(C)CN1CCC2(CC1)CN(c1ccccc1Nc1nc(-c3ccccc3)ns1)c1c(O)ccc(Cl)c12` [Example 35, 4-Chloro-1′-neopentyl-1-(2-(3-phenyl-1,2,4-thiadiazol-5-ylamino)phenyl)spiro[indoline-3,4′-piperidin]-7-ol]: the Ki in assay [1] (SPA, 0.3 nM [33P] 2MeS-ADP, Cheng-Prusoff, read-out: P2Y1 Ki (nM) using binding assay B) came out at 6 nM. For the same compound, the IC50 in assay [2] was determined as 5.4 µM.
`CC(C)(C)CN1CCC2(CC1)CN(c1ccccc1Nc1ncc(-c3ccccc3)s1)c1c(O)ccc(Cl)c12` [Example 11, 4-Chloro-1′-neopentyl-1-(2-(5-phenylthiazol-2-ylamino)phenyl)spiro[indoline-3,4′-piperidin]-7-ol] displayed a Ki in assay [1] of 16 nM. Further, the IC50 in assay [2] was determined as 3.7 µM.
In assay [1], `Cn1nc(C(C)(C)C)cc1-c1nnc(Nc2ccccc2N2CC3(CCN(CC(C)(C)C)CC3)c3c(Cl)ccc(O)c32)s1` [Example 18, 1-(2-((5-(3-(tert-butyl)-1-methyl-1H-pyrazol-5-yl)-1,3,4-thiadiazol-2-yl)amino)phenyl)-4-chloro-1′-neopentylspiro[indoline-3,4′-piperidin]-7-ol] registered a Ki of 33 nM. Moreover, the IC50 in assay [2] stood at 1.8 µM.
`CC(C)(C)CN1CCC2(CC1)CN(c1ccccc1Nc1nnc(-c3cccc(C(F)(F)F)c3)s1)c1c(O)ccc(Cl)c12` [Example 27, 4-chloro-1′-neopentyl-1-(2-((5-(3-(trifluoromethyl)phenyl)-1,3,4-thiadiazol-2-yl)amino)-phenyl)spiro[indoline-3,4′-piperidin]-7-ol]: in assay [1], the inhibition constant Ki is 24 nM. Moreover, the IC50 in assay [2] was 3.2 µM.
The matching figures for `CC(C)(C)CN1CCC2(CC1)CN(c1ccccc1Nc1nnc(-c3ccc(Cl)cc3)s1)c1c(O)ccc(F)c12` [Example 31, 1-(2-((5-(4-chlorophenyl)-1,3,4-thiadiazol-2-yl)amino)phenyl)-4-fluoro-1′-neopentylspiro-[indoline-3,4′-piperidin]-7-ol]: 6 nM and 4.2 µM.
The matching figures for `CC(C)(C)CN1CCC2(CC1)CN(c1ccccc1Nc1nnc(-c3ccc(OC(F)(F)F)cc3)s1)c1c(O)cc(F)c(F)c12` [Example 34, 4,5-difluoro-1′-neopentyl-1-(2-((5-(4-(trifluoromethoxy)-phenyl)-1,3,4-thiadiazol-2-yl)amino)phenyl)spiro[indoline-3,4′-piperidin]-7-ol]: 37 nM and 9.9 µM.
In assay [1], `CC(C)CN1CCc2nc(Nc3ccccc3N3CC4(CCN(CC(C)(C)C)CC4)c4c(Cl)ccc(O)c43)sc2C1` [Example 41, 4-Chloro-1-(2-(5-isobutyl-4,5,6,7-tetrahydrothiazolo[5,4-c]pyridin-2-ylamino)phenyl)-1′-neopentylspiro[indoline-3,4′-piperidin]-7-ol] registered a Ki of 21 nM. Besides, the IC50 in assay [2] is 20.3 µM.

(Values after patent US9120798B2, “Amino-heteroaryl 7-hydroxy-spiropiperidine indolinyl antagonists of P2Y1 receptor” (priority 2012, dated 2015).)
